Data published in patent US8674136B2, “Aromatic butan-2-ol compounds and preparation and uses thereof” (Institute of Pharmacology and Toxicology Academy of …, priority 2010, dated 2014).
Values after ≈ are worked out from the molar mass of the structure shown. Values joined by “and” are separate entries in the source; they are usually repeats but may differ in a detail not shown here. Equal values may be shown once.

System: not listed separately
Experiment: Acute toxicity in mice, single oral intragastric administration
Type: in vivo
Details: male, BALB/C, mouse, in vivo, single oral intragastric administration, preliminary
Protocol: (§1) Experiments on the Acute Toxicity of the Compounds
(§2) The acute toxicities of Compounds 4, 16 and 25 were in vivo evaluated preliminarily in mice. Animal: male BALB/C mice, 18-20 g/mouse, 3 mice for blank control group, and 5 mice for each of test groups.
(§3) Method: Suspensions of Compound 25: 49 mg/ml (depended on the total amount of the compound provided); Compounds 4 and 16: 50 mg/ml were prepared in 0.5% CMC to separately. Each mouse of the 3 groups was subjected to oral intragastric administration of 0.2 ml of drug, and the doses were separately as follows: Compound 25: 490 mg/kg; and Compounds 4 and 16: 500 mg/kg. The blank control was administered with water. The consciousness, behavior and death of mice were observed every day after administration until 7 days of administration, and the survived mice were dissected after 7 days to observe pathological changes of tissues.

Compound | LD50 at 7 days [mg/kg]
COc1cc2ccc(Br)cc2cc1C(c1ccc(Cl)cc1)C(O)(CCN(C)C)c1cccc2ccccc12 (single isomer, unassigned) [Compound 4, 1-(4-chlorophenyl)-2-(1-naphthyl)-1-[2-(7-bromo-3-methoxy)naphthyl]-4-(N,N-dimethylamino)-butan-2-ol] | ≥ 500

System: male BALB/C mice
Experiment: as above
Type: in vivo
Details: single dose of 500 mg/kg, observed 7 days
Protocol: as §1, §2, §3

Compound | death or abnormality of the animals
COc1cc2ccc(Br)cc2cc1C(c1ccc(Cl)cc1)C(O)(CCN(C)C)c1cccc2ccccc12 (single isomer, unassigned) [Compound 4, 1-(4-chlorophenyl)-2-(1-naphthyl)-1-[2-(7-bromo-3-methoxy)naphthyl]-4-(N,N-dimethylamino)-butan-2-ol] | no death nor abnormality

System: Standard Strain H37Rv of mycobacterium tuberculosis
Experiment: MIC against standard strain H37Rv by Microplate Alamar Blue Assay (MABA)
Type: cell-based
Details: M. tuberculosis H37Rv, 7H9 medium, 37° C.

Compound | MIC
COc1cc2ccc(Br)cc2cc1C(c1ccc(Cl)cc1)C(O)(CCN(C)C)c1cccc2ccccc12 (single isomer, unassigned) [Compound 3, 1-(4-chlorophenyl)-2-(1-naphthyl)-1-[2-(7-bromo-3-methoxy)naphthyl]-4-(N,N-dimethylamino)-butan-2-ol] | 2.883 µg/mL (≈ 4.89 µM)
COc1cc2ccc(Br)cc2cc1C(c1ccc(Cl)cc1)C(O)(CCN(C)C)c1cccc2ccccc12 (single isomer, unassigned) [Compound 4, 1-(4-chlorophenyl)-2-(1-naphthyl)-1-[2-(7-bromo-3-methoxy)naphthyl]-4-(N,N-dimethylamino)-butan-2-ol] | 0.244 µg/mL (≈ 0.414 µM)
COc1cc2ccccc2cc1C(c1ccc(Cl)cc1)C(O)(CCN(C)C)c1cccc2ccccc12 (single isomer, unassigned) [Compound 5, 1-(4-chlorophenyl)-2-(1-naphthyl)-1-[2-(3-methoxy)naphthyl]-4-(N,N-dimethylamino)-butan-2-ol] | 3.052 µg/mL (≈ 5.98 µM)
COc1cc2ccccc2cc1C(c1ccc(Cl)cc1)C(O)(CCN(C)C)c1cccc2ccccc12 (single isomer, unassigned) [Compound 6, 1-(4-chlorophenyl)-2-(1-naphthyl)-1-[2-(3-methoxy)naphthyl]-4-(N,N-dimethylamino)-butan-2-ol] | 1.454 µg/mL (≈ 2.85 µM)
COc1cc2ccccc2cc1C(c1ccccc1)C(O)(CCN(C)C)c1cccc2ccccc12 (stereo not drawn) [Compound 2, 1-phenyl-2-(1-naphthyl)-1-[2-(3-methoxy)-naphthyl]-4-(N,N-dimethylamino)-butan-2-ol] | 3.178 µg/mL (≈ 6.68 µM)
COc1cc2ccc(Br)cc2cc1C(c1ccc(Cl)cc1)C(O)(CCN(C)C)c1ccc(Br)cc1 (stereo not drawn) [Compound 8, 1-(4-chlorophenyl)-2-(4-bromophenyl)-1-[2-(7-bromo-3-methoxy)naphthyl]-4-(N,N-dimethylamino)-butan-2-ol] | 0.956 µg/mL (≈ 1.55 µM)
COc1cc2ccc(Br)cc2cc1C(c1ccccc1)C(O)(CCN(C)C)c1ccc(Br)cc1 (stereo not drawn) [Compound 9, 1-phenyl-2-(4-bromophenyl)-1-[2-(7-bromo-3-methoxy)naphthyl]-4-(N,N-dimethylamino)-butan-2-ol] | 0.118 µg/mL (≈ 0.202 µM)
COc1cc2ccc(Br)cc2cc1C(c1ccccc1)C(O)(CCN(C)C)c1ccc(Br)cc1 (stereo not drawn) [Compound 10, 1-phenyl-2-(4-bromophenyl)-1-[2-(7-bromo-3-methoxy)naphthyl]-4-(N,N-dimethylamino)-butan-2-ol] | 2.000 µg/mL (≈ 3.43 µM)
COc1cc2ccc(Br)cc2cc1C(c1ccccc1)C(O)(CCN(C)C)c1cccc(Br)c1 (stereo not drawn) [Compound 11, 1-phenyl-2-(3-bromophenyl)-1-[2-(7-bromo-3-methoxy)naphthyl]-4-(N,N-dimethylamino)-butan-2-ol] | 0.103 µg/mL (≈ 0.177 µM)
COc1cc2ccc(Br)cc2cc1C(c1ccccc1)C(O)(CCN(C)C)c1cccc(Br)c1 (stereo not drawn) [Compound 12, 1-phenyl-2-(3-bromophenyl)-1-[2-(7-bromo-3-methoxy)naphthyl]-4-(N,N-dimethylamino)-butan-2-ol] | 1.000 µg/mL (≈ 1.71 µM)
COc1cc2ccc(Br)cc2cc1C(c1ccc(Cl)cc1)C(O)(CCN(C)C)c1cccc(Br)c1 (stereo not drawn) [Compound 15, 1-(4-chlorophenyl)-2-(3-bromophenyl)-1-[2-(7-bromo-3-methoxy)naphthyl]-4-(N,N-dimethylamino)-butan-2-ol] | 2.166 µg/mL (≈ 3.51 µM)
COc1cc2ccc(Br)cc2cc1C(c1ccc(Cl)cc1)C(O)(CCN(C)C)c1ccccc1 (stereo not drawn) [Compound 17, 1-(4-chlorophenyl)-2-phenyl-1-[2-(7-bromo-3-methoxy)naphthyl]-4-(N,N-dimethylamino)-butan-2-ol] | 2.000 µg/mL (≈ 3.71 µM)
COc1cc2ccc(Br)cc2cc1C(c1ccc(Cl)cc1)C(O)(CCN(C)C)c1ccccc1 (stereo not drawn) [Compound 18, 1-(4-chlorophenyl)-2-phenyl-1-[2-(7-bromo-3-methoxy)naphthyl]-4-(N,N-dimethylamino)-butan-2-ol] | 0.109 µg/mL (≈ 0.202 µM)
COc1cc2ccc(Br)cc2cc1C(c1ccccc1)C(O)(CCN(C)C)c1ccccc1 (stereo not drawn) [Compound 19, 1,2-diphenyl-1-[2-(7-bromo-3-methoxy)naphthyl]-4-(N,N-dimethylamino)-butan-2-ol] | 0.206 µg/mL (≈ 0.408 µM)
COc1cc2ccc(Br)cc2cc1C(c1ccccc1)C(O)(CCN(C)C)c1ccccc1 (stereo not drawn) [Compound 20, 1,2-diphenyl-1-[2-(7-bromo-3-methoxy)naphthyl]-4-(N,N-dimethylamino)-butan-2-ol] | 2.000 µg/mL (≈ 3.96 µM)
COc1cc2ccc(Br)cc2cc1C(c1ccc(Cl)cc1)C(O)(CCN(C)C)c1ccccc1Br (stereo not drawn) [Compound 21, 1-(4-chlorophenyl)-2-(2-bromophenyl)-1-[2-(7-bromo-3-methoxy)naphthyl]-4-(N,N-dimethylamino)-butan-2-ol] | 2.000 µg/mL (≈ 3.24 µM)
COc1cc2ccc(Br)cc2cc1C(c1ccc(Cl)cc1)C(O)(CCN(C)C)c1ccccc1Br (stereo not drawn) [Compound 22, 1-(4-chlorophenyl)-2-(2-bromophenyl)-1-[2-(7-bromo-3-methoxy)naphthyl]-4-(N,N-dimethylamino)-butan-2-ol] | 0.111 µg/mL (≈ 0.18 µM)
COc1cc2ccc(Br)cc2cc1C(c1ccccc1)C(O)(CCN(C)C)c1ccccc1Br (stereo not drawn) [Compound 23, 1-phenyl-2-(2-bromophenyl)-1-[2-(7-bromo-3-methoxy)naphthyl]-4-(N,N-dimethylamino)-butan-2-ol] | >32 µg/mL
COc1cc2ccc(Br)cc2cc1C(c1ccccc1)C(O)(CCN(C)C)c1ccccc1Br (stereo not drawn) [Compound 24, 1-phenyl-2-(2-bromophenyl)-1-[2-(7-bromo-3-methoxy)naphthyl]-4-(N,N-dimethylamino)-butan-2-ol] | 0.224 µg/mL (≈ 0.384 µM)
COc1cc2ccc(Br)cc2cc1C(c1ccccc1)C(O)(CCN(C)C)c1cccc2ccccc12 (stereo not drawn) [Compound 26, 1-phenyl-2-(1-naphthyl)-1-[2-(7-bromo-3-methoxy)naphthyl]-4-(N,N-dimethylamino)-butan-2-ol] | 1.977 µg/mL (≈ 3.57 µM)
COc1cc2ccc(Br)cc2cc1C(c1ccc(C)cc1)C(O)(CCN(C)C)c1cccc2ccccc12 (stereo not drawn) [Compound 29, 1-(4-methylphenyl)-2-(1-naphthyl)-1-[2-(7-bromo-3-methoxy)naphthyl]-4-(N,N-dimethylamino)-butan-2-ol] | 0.222 µg/mL (≈ 0.39 µM)
COc1c(C(c2ccccc2)C(O)(CCN(C)C)c2cccc3ccccc23)cc2cc(Br)ccc2c1Br (stereo not drawn) [Compound 31, 1-phenyl-2-(1-naphthyl)-1-[2-(4,7-dibromo-3-methoxy)naphthyl]-4-(N,N-dimethylamino)-butan-2-ol] | 0.124 µg/mL (≈ 0.196 µM)
COc1c(C(c2ccccc2)C(O)(CCN(C)C)c2cccc3ccccc23)cc2cc(Br)ccc2c1Br (stereo not drawn) [Compound 32, 1-phenyl-2-(1-naphthyl)-1-[2-(4,7-dibromo-3-methoxy)naphthyl]-4-(N,N-dimethylamino)-butan-2-ol] | 1.000 µg/mL (≈ 1.58 µM)
CN(C)CCC(O)(c1cccc2ccccc12)C(c1ccccc1)c1cc2cc(Br)ccc2c(Br)c1O (stereo not drawn) [Compound 33, 1,6-dibromo-3-[1-phenyl 2-(1-naphthyl)-2-hydroxy-4-(N,N-dimethylamino)]butyl-2-naphthol] | 1.000 µg/mL (≈ 1.61 µM)
CN(C)CCC(O)(c1cccc2ccccc12)C(c1ccccc1)c1cc2cc(Br)ccc2c(Br)c1O (stereo not drawn) [Compound 34, 1,6-dibromo-3-[1-phenyl 2-(1-naphthyl)-2-hydroxy-4-(N,N-dimethylamino)]butyl-2-naphthol] | 4.000 µg/mL (≈ 6.46 µM)
COc1cc2ccc(Br)cc2cc1C(c1cccc(Cl)c1)C(O)(CCN(C)C)c1cccc2ccccc12 (stereo not drawn) [Compound 35, 1-(3-chlorophenyl)-2-(1-naphthyl)-1-[2-(7-bromo-3-methoxy)naphthyl]-4-(N,N-dimethylamino)-butan-2-ol] | 0.114 µg/mL (≈ 0.194 µM)
COc1cc2ccc(Br)cc2cc1C(c1cccc(Cl)c1)C(O)(CCN(C)C)c1cccc2ccccc12 (stereo not drawn) [Compound 36, 1-(3-chlorophenyl)-2-(1-naphthyl)-1-[2-(7-bromo-3-methoxy)naphthyl]-4-(N,N-dimethylamino)-butan-2-ol] | 3.773 µg/mL (≈ 6.41 µM)
COc1cc2ccc(Br)cc2cc1C(c1cccc(C)c1)C(O)(CCN(C)C)c1cccc2ccccc12 (stereo not drawn) [Compound 37, 1-(3-methylphenyl)-2-(1-naphthyl)-1-[2-(7-bromo-3-methoxy)naphthyl]-4-(N,N-dimethylamino)-butan-2-ol] | 0.180 µg/mL and 0.258 µg/mL

Same assay, conditions: Mycobacterium tuberculosis, H37RV, M. tuberculosis H37Rv, 7H9 medium, 37° C., read-out: MIC

Compound | MIC [µg/mL]
COc1cc2ccccc2cc1C(c1ccccc1)C(O)(CCN(C)C)c1cccc2ccccc12 (stereo not drawn) [Compound 1, 1-phenyl-2-(1-naphthyl)-1-[2-(3-methoxy)-naphthyl]-4-(N,N-dimethylamino)-butan-2-ol] | 2.05 (≈ 4.3 µM)
COc1cc2ccc(Br)cc2cc1C(c1ccc(Cl)cc1)C(O)(CCN(C)C)c1ccc(Br)cc1 (stereo not drawn) [Compound 7, 1-(4-chlorophenyl)-2-(4-bromophenyl)-1-[2-(7-bromo-3-methoxy)naphthyl]-4-(N,N-dimethylamino)-butan-2-ol] | 1 (≈ 1.62 µM)
COc1cc2ccccc2cc1C(c1ccc(Cl)cc1)C(O)(CCN(C)C)c1ccc(F)cc1F (stereo not drawn) [Compound 13, 1-(4-chlorophenyl)-2-(2,4-difluorophenyl)-1-[2-(3-methoxy)naphthyl]-4-(N,N-dimethylamino)-butan-2-ol] | 1 (≈ 2.02 µM)
